The record followed here is ChEMBL document CHEMBL1123556, “Synthesis of antimicrobial agents. 1. Syntheses and antibacterial activities of 7-(azole substituted)quinolones” (J Med Chem, 1987).

In brackets after ≈: the same amount, converted by molar mass.

Data set [1] concerns Bacillus subtilis. Kind of data set: In vitro antibacterial activity against Bacillus subtilis ATCC 6633. Type of data set: functional.
Data set [2] deals with Klebsiella pneumoniae. Kind of data set: In vitro antibacterial activity against Klebsiella pneumoniae PCI-602. It is filed as functional.
For data set [3], the system named is Proteus vulgaris. Kind of data set: In vitro antibacterial activity against Proteus vulgaris HX-19. Type of data set: functional.
In data set [4] the test system is Pseudomonas aeruginosa. Kind of data set: In vitro antibacterial activity against Pseudomonas aeruginosa IFO 3445. It is filed as functional.
In data set [5] the test system is Salmonella paratyphi. Kind of data set: In vitro antibacterial activity against Salmonella paratyphi 1015. Conditions: Salmonella enterica. It is filed as functional, Salmonella enterica subsp. enterica serovar Paratyphi A.
Data set [6] concerns Staphylococcus epidermidis. Kind of data set: In vitro antibacterial activity against Staphylococcus epidermidis IAM 1576. It is filed as functional.
Data set [7] has as its system Escherichia coli. Kind of data set: In vitro antibacterial activity against Escherichia coli NIHJ JC-2. Type of data set: functional.
Data set [8] concerns Staphylococcus aureus. Kind of data set: In vitro antibacterial activity against Staphylococcus aureus FDA 209P JC-1. It is filed as functional.
A short description of data set [9]: In vivo acute toxicity against Escherichia coli (KC-14) was determined for the compound administered intravenously. Type of data set: organism-based. The following applies: mouse, iv.
Data set [10] can be described thus: In vivo acute toxicity against Escherichia coli (KC-14) was determined for the compound administered perorally. Conditions: mouse, po. Type of data set: organism-based.
Data set [11] has as its system Klebsiella pneumoniae. Kind of data set: microbe, parasite or virus in culture. It is filed as functional.
Data set [12] relates to Salmonella paratyphi. Kind of data set: microbe, parasite or virus in culture. It is filed as functional, Salmonella enterica subsp. enterica serovar Paratyphi A. Conditions: Salmonella enterica.
The subject of data set [13] is Staphylococcus epidermidis. Kind of data set: microbe, parasite or virus in culture. It is filed as functional.
Data set [14] in a line: Concentrations in serum after 120 minutes at 50 mg / kg oral administration. Type of data set: ADME, cell-free.
The nature of data set [15]: Concentrations in serum after 240 minutes at 50 mg / kg oral administration. It is filed as ADME.
A short description of data set [16]: Concentrations in serum after 30 minutes at 50 mg / kg oral administration. Type of data set: ADME, cell-free.
The nature of data set [17]: Concentrations in serum after 60 minutes at 50 mg / kg oral administration. It is filed as ADME, cell-free.
Data set [18] is described as follows: Total serum concentrations at 0 to 4 hours interval was determined by 50 mg / kg oral administration. Type of data set: ADME, cell-free.
The test system of data set [19] is Mus musculus. Kind of data set: In vivo antibacterial activity against Escherichia coli (KC-14) was determined for the compound administered perorally; Value ranges from 2.4-4.7. It is filed as functional. Conditions: po.
Data set [20] in a line: In vivo acute toxicity against Escherichia coli (KC-14) was determined for the compound administered orally. Type of data set: organism-based. The following applies: mouse, po.
Data set [21] concerns Mus musculus. Kind of data set: In vivo antibacterial activity against Escherichia coli (KC-14) was determined for the compound administered perorally; Value ranges from 3.3-5.0. It is filed as functional. The following applies: po.
Data set [22] relates to Mus musculus. Kind of data set: In vivo antibacterial activity against Escherichia coli (KC-14) was determined for the compound administered perorally; Value ranges from 4.8-9.4. Type of data set: functional. The following applies: po.
Data set [23] concerns Mus musculus. Kind of data set: In vivo antibacterial activity against Escherichia coli (KC-14) was determined for the compound administered perorally. Type of data set: functional. Conditions: po.

Regarding `CCn1cc(C(=O)O)c(=O)c2cc(F)c(-n3cnc(Br)c3)c(F)c21`, the MIC stood at 0.2 µg/mL (≈ 0.502 µM) in [1]; 0.2 µg/mL (≈ 0.502 µM) in [2]; 0.2 µg/mL (≈ 0.502 µM) in data set [3]; 25 µg/mL (≈ 62.8 µM) in data set [4]; 0.2 µg/mL (≈ 0.502 µM) in [5]; 6.25 µg/mL (≈ 15.7 µM) in [6]. The MIC stood at 1.56 µg/mL (≈ 3.92 µM) in [7] and 0.78 µg/mL (≈ 1.96 µM) in data set [8].

As for `CCn1cc(C(=O)O)c(=O)c2cc(F)c(N3CCNCC3)c(F)c21`, the LD50 (in general, the dose at which mortality reaches 50%) in data set [9] is 193 mg/kg; in [10], 1070 mg/kg.

With `CCn1cc(C(=O)O)c(=O)c2cc(F)c(-n3cccn3)cc21`, the MIC in data set [1] came out at 0.78 µg/mL (≈ 2.59 µM); in [11], 0.78 µg/mL (≈ 2.59 µM); in data set [3], 0.39 µg/mL (≈ 1.29 µM); in [4], 25 µg/mL (≈ 83 µM); in data set [12], 0.39 µg/mL (≈ 1.29 µM); in [13] it was 25 µg/mL (≈ 83 µM). The MIC in [7] is 12.5 µg/mL (≈ 41.5 µM); in data set [8], 6.25 µg/mL (≈ 20.7 µM).

On to `CCn1cc(C(=O)O)c(=O)c2cc(F)c(-n3cnc(C)c3)c(F)c21`, for which the concentration at 2 h in data set [14] was found to be 10000 ng/mL. In [15], the concentration at 4 h came out at 6300 ng/mL. Further, the concentration at 0.5 h in data set [16] was found to be 49200 ng/mL. For the same molecule, in data set [17], the concentration at 1 h stood at 29400 ng/mL. Also, in [18], the Concentration in serum is 67900 ng/mL. Besides, it took a dose of 3.3 mg/kg to reach the 50% effect level in [19] (ED50). Moreover, the LD50 was 593 mg/kg in data set [9] and 4000 mg/kg in data set [20].

Take `CCn1cc(C(=O)O)c(=O)c2cc(F)c(-n3ccnc3)c(F)c21`: the concentration at 2 h in data set [14] was determined as 7600 ng/mL. This molecule showed a concentration at 4 h in [15] of 1700 ng/mL. The concentration at 0.5 h in data set [16] was determined as 44800 ng/mL. The molecule also showed a concentration at 1 h in data set [17] of 39300 ng/mL. For the same molecule, the Concentration in serum in data set [18] is 64900 ng/mL. In addition, in data set [21], the ED50 (commonly the dose at which the effect has come halfway, by size or by number of responders) turned out to be 4 mg/kg. In addition, the LD50 is 773 mg/kg in data set [9] and 4000 mg/kg in data set [20].

As for `CCn1cc(C(=O)O)c(=O)c2cc(F)c(N3CCNCC3)cc21` [NORFLOXACIN], in [14], the concentration at 2 h worked out at 400 ng/mL. For the same molecule, the concentration at 4 h in data set [15] was determined as 360 ng/mL. In [16], this molecule yielded a concentration at 0.5 h of 1050 ng/mL. In data set [17], this molecule displayed a concentration at 1 h of 690 ng/mL. Besides, in data set [18], the Concentration in serum came to 2000 ng/mL. In data set [22], this molecule displayed an ED50 of 6.7 mg/kg. The LD50 in data set [9] amounted to 327 mg/kg; in [20] it was 4000 mg/kg.

`CCn1cc(C(=O)O)c(=O)c2cc(F)c(-n3cnc4c3CCCC4)c(F)c21`: the MIC in data set [1] was found to be 0.39 µg/mL (≈ 1.04 µM); in data set [11] it was 1.56 µg/mL (≈ 4.18 µM); in data set [3], 3.13 µg/mL (≈ 8.38 µM); in [4] it was 25 µg/mL (≈ 67 µM); in [12], 6.25 µg/mL (≈ 16.7 µM); in data set [13] it was 6.25 µg/mL (≈ 16.7 µM). Also, the values for the MIC in data set [7] and in data set [8] were 12.5 µg/mL (≈ 33.5 µM) and 1.56 µg/mL (≈ 4.18 µM), respectively.

Turning to `CCn1cc(C(=O)O)c(=O)c2cc(F)c(-n3cnc(C=O)c3)c(F)c21`, the MIC in data set [1] was determined as 0.78 µg/mL (≈ 2.25 µM); in data set [2], 0.2 µg/mL (≈ 0.576 µM); in [3], 0.2 µg/mL (≈ 0.576 µM); in [4] it was 25 µg/mL (≈ 72 µM); in [5], 0.2 µg/mL (≈ 0.576 µM); in data set [6], 25 µg/mL (≈ 72 µM). Moreover, the results for the MIC in [7] and in data set [8] were 0.78 µg/mL (≈ 2.25 µM) and 3.13 µg/mL (≈ 9.01 µM), respectively.

Consider `CCn1cc(C(=O)O)c(=O)c2cc(F)c(-n3ccnc3)c(SC)c21`, for which the MIC in [1] was found to be 0.39 µg/mL (≈ 1.12 µM); in data set [11], 0.39 µg/mL (≈ 1.12 µM); in data set [3] it was 0.39 µg/mL (≈ 1.12 µM); in data set [4] it was 25 µg/mL (≈ 72 µM); in data set [12], 0.39 µg/mL (≈ 1.12 µM); in data set [13] it was 12.5 µg/mL (≈ 36 µM). Moreover, the MIC was determined as 6.25 µg/mL (≈ 18 µM) in data set [7] and 3.13 µg/mL (≈ 9.01 µM) in data set [8].

With `CCn1cc(C(=O)O)c(=O)c2cc(F)c(-n3ccnc3)cc21`, the concentration at 2 h in [14] came to 1100 ng/mL. The molecule further gave a concentration at 0.5 h in [16] of 4200 ng/mL. The concentration at 1 h in [17] amounted to 2300 ng/mL. In addition, the Concentration in serum in data set [18] amounted to 5500 ng/mL. In addition, the MIC came out at 0.78 µg/mL (≈ 2.59 µM) in data set [1]; 0.2 µg/mL (≈ 0.664 µM) in [11]; 0.2 µg/mL (≈ 0.664 µM) in [3]; 12.5 µg/mL (≈ 41.5 µM) in data set [4]; 0.1 µg/mL (≈ 0.332 µM) in data set [12]; 25 µg/mL (≈ 83 µM) in data set [13]. The MIC in data set [7] was found to be 1.56 µg/mL (≈ 5.18 µM); in [8] it was 6.25 µg/mL (≈ 20.7 µM). In addition, the 50% effect level in [23] (ED50) was put at a dose of 50 mg/kg.

Consider `CCn1cc(C(=O)O)c(=O)c2cc(F)c(-n3ccnc3)c(OC)c21`, for which the MIC is 0.1 µg/mL (≈ 0.302 µM) in data set [1]; 0.1 µg/mL (≈ 0.302 µM) in [11]; 0.1 µg/mL (≈ 0.302 µM) in [3]; 25 µg/mL (≈ 75.5 µM) in data set [4]; 0.1 µg/mL (≈ 0.302 µM) in data set [12]; 1.56 µg/mL (≈ 4.71 µM) in [13]. For the same molecule, the MIC in data set [7] worked out at 1.56 µg/mL (≈ 4.71 µM); in data set [8], 0.39 µg/mL (≈ 1.18 µM).
